Experimental data as given in patent US12276667B2, “Isolation and characterization of the nuclear proteome” (Altius Institute for Biomedical Sciences, priority 2018, dated 2025).

Tested on: IKZF1
Assay: Nuclear proteome by mass spectrometry (DIA) after cell treatment with thalidomide
Format: cell-based
Conditions: cells treated with thalidomide; FIG. 14
Method: First, cells of interest are isolated. This is done by harvesting, homogenizing, washing, and then pelleting the cells of interest. The pellet is then resuspended in a buffer A not comprising polycations (e.g., no spermidine or spermine). NP40 detergent solution is then added to isolate nuclei and cells are spun and are pelleted. Optionally, prior to salt extraction, the pellet is treated with MNase at 37° C. for 5 minutes and is quenched with EDTA. The pellet is resuspended in buffer A and […] NaCl, and then is incubated at 4° C. for 30 minutes. The insoluble chromatin is pelleted for later analysis. The supernatant is used for further analysis.
400 ul of 01.% PPS is added to the nuclear pellet of EXAMPLE 1, which is then sonicated at a setting output of 5 for 30 seconds and a protein concentration is determined using A280 reading. The sample is then boiled at 99 C for 5 minutes, is allowed to cool at room temperature, and is then briefly spun down. DTT is added for a final concentration of 5 mM, and is incubated at 60° C. for 30 minutes. Next, IAA is added for a final concentration of 15 mM, and is incubated at room temperature in the dark for 30 minutes. […]
Data were acquired on a ThermoFisher QExactive-HF instrument operating in DIA mode. […] Peptide quantification was performed using EncyclopeDIA software. […]

O=C1CCC(N2C(=O)c3ccccc3C2=O)C(=O)N1 (stereo not shown) [thalidomide] was tested, and the “pharmacological degradation of IKZF1 after cell treatment” value was “degraded”.
